From patent US12234240B2, “Substituted imidazo[5,1-d][1,2,3,5]tetrazines for the treatment of cancer” (The Board of Trustees of the University of Illinois, priority 2018, dated 2025)
Read-outs that look alike come from different tables or passages of the source.

Columns and labels:
D54 cells = assay: Cell viability, Alamar Blue, 7-day incubation, D54; format: cell-based; conditions: Homo sapiens, D54, 168 h, MGMT −, error SEM
Method: (§1) Anticancer activity of C8 substituted imidazotetrazines. With a suite of imidazotetrazines in hand, each compound was evaluated against a panel of human GBM cell lines (Table 1a, Table 1b).

T98G cells [1] = assay: Cell viability, Alamar Blue, 7-day incubation, T98G; format: cell-based; conditions: Homo sapiens, 168 h, MGMT +, error SEM
Method: as §1

U87 cells = assay: Cell viability, Alamar Blue, 7-day incubation, U87; format: cell-based; conditions: Homo sapiens, U-87 MG, 168 h, MGMT −, error SEM
Method: as §1

[2] = Mouse liver microsome stability assay; format: in vitro ADME; conditions: for Stability (2 h, Microsomes): percentage remaining relative to t0, error SEM, n ≥ 2; for metabolic stability in words: mouse liver microsomes, 2 hours
Method: (§2) Liver microsome stability.
(§3) Mouse Liver Microsome Stability Assay. A mixture of PBS (pH 7.4), NADPH regenerating system solution A (Corning Life Sciences), and NADPH regenerating system solution B (Corning Life Sciences) was incubated at 37° C. in a shaking incubator for 5 min. Next, compound was added in DMSO (final concentration 50 μM, 0.5% DMSO) before ice-cold mouse liver microsomes (Thermo Fisher, male CD-1 mice, pooled) were added (final protein concentration of 1 mg/mL). An aliquot was immediately removed, quenched with an equal volume of 100 μM internal standard and 0.5% hydrochloric acid in ice-cold acetonitrile, and centrifuged at 13,000 rcf for 3 min. The supernatant was diluted 1:5 in ddH2O and analyzed by LC-MS. The reactions were incubated at 37° C. in a shaking incubator for 2 h. A second aliquot was removed, quenched and diluted as before and analyzed by LC-MS. The ratio of the areas of analyte:internal standard at 2 hours was compared to the ratio at t0 to determine the percentage of compound remaining. Analysis was performed on an Agilent 6230 LC/MS TOF system with a 1.8 μm, 2.1×50 mm Agilent ZORBAX Eclipse Plus C18 column.

[3] = Stability in the absence of microsomes (microsomes replaced with PBS); format: physicochemical; conditions: liver microsomes replaced with PBS, percentage remaining relative to t0
Method: as §2, §3

[4] = Assessment of hematological toxicity in vivo; conditions: mouse, in vivo, iv, 125 mg/kg
Method: Assessment of hematological toxicity. […] Both lymphocyte (FIG. 3b) and neutrophil (FIG. 8a) concentrations were decreased in TMZ-treated mice. […] Total WBC, lymphocyte, and neutrophil counts for mice treated with these compounds were equivalent to those of control mice.
Assessment of Hematological Toxicity. Male CD-1 IGS mice (n=4 mice/group) were administered a single dose of 125 mg/kg compound intravenously. Imidazotetrazines were formulated with SBEβCD in sterile water immediately prior to injection. Seven days post-treatment, mice were humanely sacrificed and whole blood was collected for assessment of total white blood cells, lymphocytes, neutrophils, platelets, and red blood cells.

T98G cells [5] = assay: cells; format: cell-based; conditions: for IC50: Homo sapiens, 7-day incubation
Method: FIG. 4. Imidazotetrazines were added to T98G cells with or without 3 h pre-treatment of O6BG (100 μM). IC50 values after 7-day incubation and fold changes between (+/−) O6BG treatments are reported. […] Error is SEM, n≥3. Statistical significance was determined by using a two-sample Student's t-test (two-tailed test, assuming equal variance).

[6] = Table 1a, 7 days, read-out: IC50 D54
[7] = Table 1a, 7 days, read-out: IC50 T98G
[8] = Table 1a, 7 days, n ≥ 3, read-out: IC50 U87
[9] = Table 1b, read-out: 7-day IC50 D54
[10] = Table 1b, read-out: 7-day IC50 T98G
[11] = Table 1b, read-out: 7-day IC50 U87

Compound	IC50 (U87 cells; [8]) [µM]	Stability (2 h, Microsomes) [2] [%]	Stability (2 h, No Microsomes) [3] [%]	IC50 (U87 cells; [11]) [µM]	IC50 (D54 cells; [6]) [µM]	IC50 (T98G cells [1]; [7]) [µM]	IC50 (T98G cells [1]; [10]) [µM]	further results
CCN(CC)C(=O)c1ncn2c(=O)n(C)nnc12 [Compound 6, N,N-diethyl-3-methyl-4-oxo-3,4-dihydroimidazo[5,1-d][1,2,3,5]tetrazine-8-carboxamide]	80 ± 30	81 ± 1	95 ± 2		13 ± 2	160 ± 40		
CCCCN(CCCC)C(=O)c1ncn2c(=O)n(C)nnc12 [Compound 7, N,N-dibutyl-3-methyl-4-oxo-3,4-dihydroimidazo[5,1-d][1,2,3,5]tetrazine-8-carboxamide]	27 ± 6	1 ± 1	98 ± 3		11 ± 2	140 ± 20		metabolic stability in words [2]: markedly less stability in liver microsomes
Cn1nnc2c(C(=O)N3CCCC3)ncn2c1=O [Compound 8, 3-methyl-8-(pyrrolidine-1-carbonyl)imidazo[5,1-d][1,2,3,5]tetrazin-4(3H)-one]	17 ± 3				12 ± 4	186 ± 5		
Cn1nnc2c(-c3ccccc3)ncn2c1=O [Compound 23, 3-methyl-8-phenylimidazo[5,1-d][1,2,3,5]tetrazin-4(3H)-one]	9 ± 1	44 ± 2	103 ± 5		7 ± 1	14 ± 1		
Cn1nnc2c(-c3ccc(F)cc3)ncn2c1=O [Compound 24, 8-(4-fluorophenyl)-3-methylimidazo[5,1-d][1,2,3,5]tetrazin-4(3H)-one]				13 ± 2			18 ± 2	
Cn1nnc2c(-c3ccc(C(F)(F)F)cc3)ncn2c1=O [Compound 25, 3-methyl-8-(4-(trifluoromethyl)phenyl)imidazo[5,1-d][1,2,3,5]tetrazin-4(3H)-one]				16 ± 1			> 100	
Cn1nnc2c(-c3ccc(Cl)cc3)ncn2c1=O [Compound 26, 8-(4-chlorophenyl)-3-methylimidazo[5,1-d][1,2,3,5]tetrazin-4(3H)-one]				9 ± 1			19 ± 3	IC50 (D54 cells; [9]): 7 ± 1 µM
Cc1cnc(-c2ncn3c(=O)n(C)nnc23)o1 [Compound 27, 3-methyl-8-(5-methyloxazol-2-yl)imidazo[5,1-d][1,2,3,5]tetrazin-4(3H)-one]	27 ± 4				9 ± 1	100 ± 20		Cohort weight 7 days Post [4]: 31.6 ± 0.3 g; myelosuppression / white blood cell effect [4]: did not produce myelosuppression; IC50 (T98G cells [5]; 3 h pre-treatment with O6BG (100 μM)): 5 ± 1 µM; IC50 (T98G cells [5]; 168 h, without O6BG): 100 ± 20 µM; Fold Change (T98G cells [5]; between IC50 (+/−) O6BG): 20
Cn1nnc2c(C(N)=S)ncn2c1=O [Compound 28, 3-methyl-4-oxo-3,4-dihydroimidazo[5,1-d][1,2,3,5]tetrazine-8-carbothioamide]	9 ± 1				8 ± 1	31 ± 4		

Second part, led by results:

IC50 (U87 cells; [8]) [µM]	Stability (2 h, Microsomes) [2] [%]	Stability (2 h, No Microsomes) [3] [%]	IC50 (U87 cells; [11]) [µM]	Compound	IC50 (D54 cells; [6]) [µM]	IC50 (T98G cells [1]; [7]) [µM]	IC50 (T98G cells [1]; [10]) [µM]	further results
320 ± 7				Cn1nnc2c(C(=O)O)ncn2c1=O [Compound 3]	130 ± 8	321 ± 8		
64 ± 21				CCSC(=O)c1ncn2c(=O)n(C)nnc12 [Compound 10, S-ethyl 3-methyl-4-oxo-3,4-dihydroimidazo[5,1-d][1,2,3,5]tetrazine-8-carbothioate]	8 ± 1	327 ± 4		
			26 ± 7	Cn1nnc2c(Br)ncn2c1=O [Compound 18, 8-bromo-3-methylimidazo[5,1-d][1,2,3,5]tetrazin-4(3H)-one]			60 ± 10	IC50 (D54 cells; [9]): 20 ± 1 µM
15 ± 4	91 ± 3	91 ± 1		Cn1nnc2c(Cl)ncn2c1=O [Compound 19, 8-chloro-3-methylimidazo[5,1-d][1,2,3,5]tetrazin-4(3H)-one]	21 ± 4	60 ± 10		metabolic stability in words [2]: generally stable to oxidative metabolism
